Assay results reported in article PMC4013293 (Bioorganic & medicinal chemistry, 2013).

These molecules were tested against T1, human ERα (Homo sapiens, UniProt P03372) (assay: Fluorescence polarization displacement assay with FITC-estradiol). Conditions: fluorescence polarization screen of twelve compounds.
T1 sequence (P03372 1-595): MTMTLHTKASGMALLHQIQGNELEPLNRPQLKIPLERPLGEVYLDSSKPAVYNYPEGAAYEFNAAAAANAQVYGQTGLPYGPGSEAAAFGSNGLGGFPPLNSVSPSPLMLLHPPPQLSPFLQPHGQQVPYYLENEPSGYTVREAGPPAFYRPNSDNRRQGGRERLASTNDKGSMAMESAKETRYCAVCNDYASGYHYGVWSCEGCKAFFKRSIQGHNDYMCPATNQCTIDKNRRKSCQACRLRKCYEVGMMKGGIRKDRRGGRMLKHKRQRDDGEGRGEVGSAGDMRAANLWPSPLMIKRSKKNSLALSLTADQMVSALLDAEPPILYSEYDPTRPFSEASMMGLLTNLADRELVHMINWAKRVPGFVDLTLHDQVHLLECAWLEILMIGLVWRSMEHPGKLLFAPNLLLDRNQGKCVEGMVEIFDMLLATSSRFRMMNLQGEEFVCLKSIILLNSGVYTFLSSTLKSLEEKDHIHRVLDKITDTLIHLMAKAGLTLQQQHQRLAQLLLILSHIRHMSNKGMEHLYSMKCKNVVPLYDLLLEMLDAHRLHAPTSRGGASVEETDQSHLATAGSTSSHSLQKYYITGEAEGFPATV
Format: binding

| SMILES | Affinity for ERα at concentrations as high as 1 μM (in words) |
| --- | --- |
| OC[C@H]1CCC[C@@H](c2ccc(O)cc2)CC1 (relative stereo) [Compound 18, cis-1-Hydroxymethyl-4-(4′-hydroxyphenyl)-cycloheptane] | significant affinity |
| CCCOC(=O)C1CC[C@H]2[C@@H]3CCc4cc(O)ccc4[C@H]3CC[C@]12C (stereo partly drawn) [Compound 4, n-Propyl 3-hydroxyestra-1,3,5(10)-triene-17-carboxylate] | significant affinity |
| CC[C@H](C)C1=CC[C@H]2[C@@H]3CCc4cc(O)ccc4[C@H]3CC[C@]12C [Compound 7, (20S) 3-Hydroxy-19,24-dinorchola-1,3,5(10),16-tetraene] | significant affinity |
| C[C@@H](CCO)C1=CC[C@H]2[C@@H]3CCc4cc(O)ccc4[C@H]3CC[C@]12C [Compound 11, (20S) 3-Hydroxy-19,24-Dinorchola-1,3,5(10),16-tetraen-23-ol] | significant affinity |
| CC1C[C@H](C)C2(CC[C@H]3[C@@H]4CCc5cc(O)ccc5[C@H]4CC[C@@]32C)O1 (stereo partly drawn) [Compound 13, 17,23-Epoxy-3-hydroxy-19-norchola-1,3,5(10)-triene] | significant affinity |

The molecules below were run against ERβ (Homo sapiens, UniProt Q92731) (assay: Cell-based ERβ luciferase reporter luminescence assay, agonist mode). Conditions: read-out: ERβ agonist IC50; luciferase reporter cells, 22 h, duplicate.
ERβ, sequence (Q92731 whole entry): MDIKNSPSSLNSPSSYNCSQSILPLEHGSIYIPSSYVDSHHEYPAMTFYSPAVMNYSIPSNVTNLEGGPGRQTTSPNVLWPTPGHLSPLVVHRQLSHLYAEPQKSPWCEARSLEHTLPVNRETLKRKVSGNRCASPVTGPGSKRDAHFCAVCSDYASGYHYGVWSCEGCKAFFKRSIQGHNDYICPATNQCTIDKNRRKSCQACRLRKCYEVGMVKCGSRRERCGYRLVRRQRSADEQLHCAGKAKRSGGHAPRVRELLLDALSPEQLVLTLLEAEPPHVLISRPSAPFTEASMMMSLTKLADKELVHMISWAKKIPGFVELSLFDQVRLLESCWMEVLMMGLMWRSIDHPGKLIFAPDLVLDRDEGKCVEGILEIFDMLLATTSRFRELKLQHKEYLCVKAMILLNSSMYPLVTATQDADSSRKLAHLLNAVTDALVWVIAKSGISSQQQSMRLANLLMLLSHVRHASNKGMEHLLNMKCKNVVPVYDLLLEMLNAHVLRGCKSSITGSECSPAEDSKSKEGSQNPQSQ

| SMILES | IC50 |
| --- | --- |
| OC[C@H]1CCC[C@@H](c2ccc(O)cc2)CC1 (relative stereo) [Compound 18, cis-1-Hydroxymethyl-4-(4′-hydroxyphenyl)-cycloheptane] | 5.4 ± 0.3 nM |
